Laboratory results taken from the supplement of paper PMC13380429.
± gives the standard deviation of the averaged measurements.

Tests used:
Settings in all cases: 72 h
HepG2 [1] = experiment: cell viability relative to DMSO; higher = less toxic
Caco-2 [2] = experiment: as above
Vero E6 [3] = experiment: as above
U2OS [4] = experiment: as above
Calu-3 [5] = experiment: as above
HepG2 [6] = experiment: drug sensitivity score (DSS) for viability; higher = more toxic; extreme values may be limits of the assay
Caco-2 [7] = experiment: as above
Vero E6 [8] = experiment: as above
U2OS [9] = experiment: as above
Calu-3 [10] = experiment: as above
HepG2 [11] = experiment: relative viability EC50 (midpoint between 100% and the lowest measured viability); higher = less toxic
Caco-2 [12] = experiment: as above
Vero E6 [13] = experiment: as above
U2OS [14] = experiment: as above
Calu-3 [15] = experiment: as above

| SMILES | cell viability (HepG2 [1]; 1 nM) | cell viability (HepG2 [1]; 10 nM) | cell viability (HepG2 [1]; 100 nM) | cell viability (HepG2 [1]; 1000 nM) | cell viability (HepG2 [1]; 10000 nM) | cell viability (Caco-2 [2]; 1 nM) | cell viability (Caco-2 [2]; 10 nM) | cell viability (Caco-2 [2]; 100 nM) | cell viability (Caco-2 [2]; 1000 nM) | cell viability (Caco-2 [2]; 10000 nM) | cell viability (Vero E6 [3]; 1 nM) | cell viability (Vero E6 [3]; 10 nM) | cell viability (Vero E6 [3]; 100 nM) | cell viability (Vero E6 [3]; 1000 nM) | cell viability (Vero E6 [3]; 10000 nM) | cell viability (U2OS [4]; 1 nM) | cell viability (U2OS [4]; 10 nM) | cell viability (U2OS [4]; 100 nM) | cell viability (U2OS [4]; 1000 nM) | cell viability (U2OS [4]; 10000 nM) | cell viability (Calu-3 [5]; 1 nM) | cell viability (Calu-3 [5]; 10 nM) | cell viability (Calu-3 [5]; 100 nM) | cell viability (Calu-3 [5]; 1000 nM) | cell viability (Calu-3 [5]; 10000 nM) | drug sensitivity score (HepG2 [6]) | drug sensitivity score (Caco-2 [7]) | drug sensitivity score (Vero E6 [8]) | drug sensitivity score (U2OS [9]) | drug sensitivity score (Calu-3 [10]) | relative viability EC50 (HepG2 [11]) | relative viability EC50 (Caco-2 [12]) | relative viability EC50 (Vero E6 [13]) | relative viability EC50 (U2OS [14]) | relative viability EC50 (Calu-3 [15]) |
| --- | --- | --- | --- | --- | --- | --- | --- | --- | --- | --- | --- | --- | --- | --- | --- | --- | --- | --- | --- | --- | --- | --- | --- | --- | --- | --- | --- | --- | --- | --- | --- | --- | --- | --- | --- |
| CCn1ccnc1CC1COc2ccccc2O1 (stereo not given) [imiloxan] | 90.6% | 91.6% | 94.5% | 93.2% | 116% | 106% | 87.6% | 92.9% | 104% | 102% | 92.5% | 99.8% | 95.9% | 90.7% | 102% | 101% | 98.4% | 99.2% | 101% | 104% | 97.9% | 98.5% | 99.7% | 107% | 94.4% | 0 | 0 | 0 | 0 | 0 | > 10 µM | > 10 µM | > 10 µM | > 10 µM | > 10 µM |
| C1=Cc2cccc(OCC3CNCCO3)c2C1 (stereo not given) [indeloxazine] | 105% | 111% | 104% | 93.1% | 91.7% | 101% | 94.2% | 86.4% | 88.9% | 90.3% | 104% | 106% | 102% | 102% | 93.8% | 95.2% | 97.8% | 101% | 99.3% | 96.8% | 105% | 93.8% | 104% | 97.1% | 97.8% | 0 | 2.3 | 0 | 0 | 0 | > 10 µM | > 10 µM | > 10 µM | > 10 µM | > 10 µM |
| O=C(O)CCCN1C(=O)c2cccc3cccc(c23)C1=O [isodibut] | 96.1% | 95.8% | 104% | 105% | 98.9% | 105% | 90.9% | 93.6% | 98.6% | 95.4% | 97% | 97.9% | 103% | 101% | 99.1% | 99.3% | 96.6% | 97.7% | 97.6% | 95.7% | 99.1% | 97.8% | 96.9% | 94.8% | 114% | 0 | 0 | 0 | 0 | 0 | > 10 µM | > 10 µM | > 10 µM | > 10 µM | > 10 µM |
| O=C(/C=C/c1ccc(O)cc1)c1ccc(O)cc1O [isoliquiritigenin] | 102% | 107% | 91.9% | 101% | 96.5% | 102% | 92.1% | 95.6% | 92.2% | 86.4% | 99.4% | 107% | 93.6% | 104% | 113% | 97.3% | 99.7% | 103% | 98.2% | 94.9% | 103% | 93.7% | 107% | 107% | 112% | 0 | 0.2 | 0 | 0 | 0 | > 10 µM | > 10 µM | > 10 µM | > 10 µM | > 10 µM |
| CCN(C(=O)c1c(O)c2c(Cl)cccc2n(C)c1=O)c1ccccc1 [laquinimod] | 102% | 98.6% | 103% | 93.4% | 92.8% | 90.3% | 88.5% | 98.2% | 106% | 91.5% | 99.8% | 99.9% | 92.8% | 92.5% | 91.4% | 96.9% | 98.9% | 99.2% | 97.6% | 96.9% | 110% | 87.9% | 91.5% | 108% | 102% | 0 | 0 | 0 | 0 | 0 | > 10 µM | > 10 µM | > 10 µM | > 10 µM | > 10 µM |
| CC(C)(C)NC[C@H](O)COc1cccc2c1CCCC2=O [levobunolol] | 100 ± 4.1% | 95.8 ± 2.8% | 112 ± 2% | 94.8 ± 4.3% | 97.9 ± 2.4% | 88 ± 1.8% | 94.8 ± 5.9% | 96 ± 4.7% | 101.3 ± 0.64% | 97.2 ± 1.1% | 105 ± 6.1% | 94.6 ± 2.8% | 95.6 ± 5.7% | 90.5 ± 3.1% | 101 ± 3.8% | 97.15 ± 0.78% | 102 ± 2% | 101.5 ± 0.21% | 101.3 ± 0.78% | 103 ± 0.21% | 99.2 ± 9.6% | 102 ± 0.99% | 93.9 ± 3.1% | 103 ± 3.2% | 104.25 ± 0.071% | 0 | 0 | 0 | 0 | 0 | > 10 µM | > 10 µM | > 10 µM | > 10 µM | > 10 µM |
| CC#CCn1c(N2CCC[C@@H](N)C2)nc2c1c(=O)n(Cc1nc(C)c3ccccc3n1)c(=O)n2C [linagliptin] | 95.3% | 93.8% | 95.7% | 103% | 102% | 103% | 105% | 89.9% | 91.4% | 102% | 97.1% | 106% | 105% | 84.4% | 110% | 98.4% | 99.8% | 98.9% | 107% | 96.1% | 95.9% | 103% | 99.2% | 97.9% | 102% | 0 | 0 | 0 | 0 | 0 | > 10 µM | > 10 µM | > 10 µM | > 10 µM | > 10 µM |
| CC(C)CCNC(=O)[C@H](CC(C)C)NC(=O)[C@H]1O[C@@H]1C(=O)O [loxistatin-acid] | 93.4% | 98.3% | 104% | 103% | 104% | 103% | 95.6% | 93.1% | 99% | 100% | 103% | 107% | 99.4% | 102% | 101% | 99.4% | 98.7% | 101% | 101% | 105% | 101% | 95.8% | 101% | 91.5% | 105% | 0 | 0 | 0 | 0 | 0 | > 10 µM | > 10 µM | > 10 µM | > 10 µM | > 10 µM |
| Nc1ccccc1NC(=O)c1ccc(CNc2nccc(-c3cccnc3)n2)cc1 [mocetinostat] | 102% | 100% | 88.9% | 44.2% | 1.1% | 95.6% | 100% | 102% | 64.4% | 17.7% | 95.4% | 94.7% | 78% | 43.4% | -0.1% | 98.4% | 97.2% | 100% | 64.2% | 0.3% | 102% | 89.6% | 86.8% | 40% | 17.7% | 12.5 | 9.2 | 13.9 | 10.4 | 13 | 0.756 µM | 1.12 µM | 0.567 µM | 1.26 µM | 0.405 µM |
| CCn1cc(C(=O)O)c(=O)c2ccc(C)nc21 [nalidixic-acid] | 106% | 108% | 90% | 102% | 95.6% | 96.3% | 94.4% | 93.2% | 99.9% | 96.8% | 113% | 107% | 104% | 101% | 89.4% | 100% | 95.8% | 100% | 98.3% | 104% | 96.8% | 89% | 100% | 93% | 102% | 0 | 0 | 0 | 0 | 0 | > 10 µM | > 10 µM | > 10 µM | > 10 µM | > 10 µM |
| CC(C)NCC(O)c1ccc([N+](=O)[O-])cc1 (stereo not given) [nifenalol] | 98.3% | 101% | 103% | 108% | 106% | 87.2% | 99.9% | 92.7% | 85.1% | 94% | 107% | 106% | 102% | 93.3% | 89.6% | 93.8% | 100% | 102% | 99.2% | 99.7% | 101% | 96.8% | 103% | 98.4% | 108% | 0 | 0 | 0 | 0 | 0 | > 10 µM | > 10 µM | > 10 µM | > 10 µM | > 10 µM |
| CC1C=CC=CCCC=CC=CC=CC=CC(OC2OC(C)C(O)C(N)C2O)CC2OC(O)(CC(O)C(O)CCC(O)CC(O)CC(O)CC(=O)OC(C)C(C)C1O)CC(O)C2C(=O)O (stereo not given) [nystatin] | 96.7% | 101% | 98.7% | 96.8% | 110% | 98.4% | 98.5% | 97.4% | 97.4% | 103% | 92.9% | 93.6% | 94.7% | 96.1% | 107% | 102% | 99.3% | 99% | 102% | 104% | 106% | 84.5% | 94.6% | 104% | 109% | 0 | 0 | 0 | 0 | 0 | > 10 µM | > 10 µM | > 10 µM | > 10 µM | > 10 µM |
| C[C@@H](O)[C@@H]1NC(=O)[C@H](CCCCN)NC(=O)[C@@H](Cc2c[nH]c3ccccc23)NC(=O)[C@H](Cc2ccccc2)NC(=O)[C@@H](NC(=O)[C@H](N)Cc2ccccc2)CSSC[C@@H](C(=O)N[C@H](CO)[C@@H](C)O)NC1=O [octreotide] | 98.1% | 98.9% | 98.8% | 115% | 92.7% | 103% | 115% | 95.6% | 119% | 104% | 110% | 103% | 110% | 107% | 93% | 97.5% | 101% | 96% | 102% | 101% | 94.3% | 91.9% | 120% | 101% | 109% | 0 | 0 | 0 | 0 | 0 | > 10 µM | > 10 µM | > 10 µM | > 10 µM | > 10 µM |
